The values that follow come from patent US7199138B2, “Substituted anthranilamides for controlling invertebrate pests” (E. I. du Pont de Nemours and Company, priority 2001, dated 2007).

Molecules are shown by their SMILES.

What is called melting point is the temperature of the solid-liquid transition. Take `Cc1cc(NC(=O)c2ccccc2)cc(C(=O)NC(C)C)c1NC(=O)c1cc(C(F)(F)F)nn1-c1ncccc1Cl`: the melting point was in the range of 231 to 233 °C.
